# Results published in patent publication US4571403A, “Antianginal medicated compound” (Institut Organicheskoi Khimii Imeni N.D. Zelinskogo …, priority 1984, dated 1986).
# “Also recorded” adds a separate entry of the source.
# How the values were obtained:
# acute toxicity on mice = type: in vivo; settings: mouse, in vivo
# From the text: (§1) The acute toxicity of the preparation according to the present invention has been studied on mice and rats.
# mice = assay: acute toxicity on mice; type: in vivo
# From the text: as §1
# acute toxicity on rats = settings: rat, in vivo
# From the text: as §1
# rats = assay: chronical toxicity in rats, intraperitoneal; type: in vivo
# [1] = test system: systemic arterial pressure; assay: effect on arterial pressure in cats and dogs; type: in vivo
# Description: The effect of the preparation on the arterial pressure has been also studied. […] The average value of the maximum drop of pressure during the first 10 minutes after the administration is 8-10% of the initial level. In doses of 500 mg/kg the preparation causes hypotensive reaction with the intensity of 15-18% of the initial level at the duration of the effect of 20-30 minutes.
# coronary blood flow = assay: rate of coronary blood flow and oxygen absorption by myocardium in anesthetized cats; type: in vivo
# Description: At the same time, the content of oxyhemoglobin in the coronary venous blood is determined by the photometrical method and the absorption of oxygen by myocardium is calculated on the basis of the arterio-venous difference value.
# The effect duration varies within the range of from 5 to 10 minutes. With increasing the preparation dose up to 500 mg/kg, the intensity and duration of the effect are increased reaching respectively 108±12% and 30-40 minutes.
# Calculation of the amount of the heart-absorbed oxygen points to it explicit increase (29±2.3%).
# [2] = test system: activity of heart and hemodynamics; assay: phase curve analysis of aortic blood flow: activity of heart and hemodynamics in anesthetized cats; type: in vivo; set-up: Maximum blood flow: unit not given here; settings: for Time of systolic ejaculation: background 0.14 ± 0.008; for Time of diastolic relaxation: background 0.22 ± 0.01; for Minute work: background 0.88 ± 0.09; for Systolic (beat) volume: background 1.93 ± 0.12; for Maximum blood flow: background 19.7 ± 2.1; for Maximum linear speed: background 35 ± 1.9; for Average arterial pressure: background 148 ± 7.6; for Pulse frequency: background 181 ± 5; for Minute volume: background 372 ± 26
# From the text: In experiments on cats and dogs under the general anesthesia conditions the volumetric flow rate of blood flow in the ascending part of the aortic arch has been recorded by the electromagnetic method using an electromagnetic blood flow meter and vessel sensors of appropriate size. On the basis of analysis of the phase curve of the blood flow, the main characteristics of heart activity and hemodynamics have been calculated. […] The averaged data of analysis of phase curves of the blood flow in cat's aorta under general anesthesia conditions (8 tests) are given in the Table hereinbelow.
# Effect of the preparation (250 mg/kg intravenously) on the
# activity of heart and basic characteristics of hemodynamics
# [3] = test system: sympathetic nerves of heart and kidney; assay: tonic and reflectorial bioelectric activity in sympathetic nerves of heart and kidney; type: in vivo; settings: cats
# From the text: In experiments on anesthetized (urethane+chloralose) and immobilized (succinylcholine bromide) cats (14 tests) there has been studied the effect of the preparation in various doses on the tonic and reflectorial bioelectric activity in sympathetic nerves of heart and kidney. Somatosympathetic reflexes are caused by electric irritation of afferent A- and C- fibers of the tibial nerve.
# [4] = test system: ischemic zone of myocardium; assay: model of acute attack of stenocardia (Sekeresh's model) in anesthetized dogs; type: in vivo
# From the text: The effect of the preparation on the functional state of the ischemic center has been studied in experiments on dogs under the conditions of general anesthesia. The effects caused by the preparation have been studied on the model of an acute attack of stenocardia (Sekeresh's model). The functional state of the ischemic focus has been assessed through analysis of epicardial heart electrograms in the ischemic zone and adjacent regions. The stenocardiac attack is caused by way of a partial occlusion of the coronary artery (left descending artery) and including a high rhythm of heart contractions (up to 250 beats/minute) by way of electrical stimulation of the heart auricula. Under these conditions there take place changes of the heart electrograms typical for acute ischemia of myocardium.
# solubility in water = type: physicochemical; settings: white crystalline powder
# cardio-vascular effects = assay: overall cardiovascular effects / conclusions of the tests; settings: in vivo
# From the text: The results of the above-described tests allow the following conclusions characterizing the properties of the medicated compound according to the present invention.
# [5] = intraperitoneal 200 mg/kg for 6 months and 1,000 mg/kg for 1 month
# [6] = 50 mg/kg intravenously, cats and dogs
# [7] = 5 minutes after 250 mg/kg intravenously
# [8] = 10 minutes after 250 mg/kg intravenously
# [9] = 20 minutes after 250 mg/kg intravenously
# [10] = 40 minutes after 250 mg/kg intravenously
structure (smiles),measurement,setting,value
"CN1C(=O)N(C)C2C1N(C)C(=O)N2C (stereo not drawn) [the preparation, 2,4,6,8-tetramethyl-2,4,6,8-tetraazobicyclo-/3,3,0/-octanedione-3,7]",LD50,acute toxicity on mice,3800 mg/kg
same,LD50,mice,"3,800 mg/kg of the body weight"
same,LD50,acute toxicity on rats,3450 mg/kg
same,accumulation,rats; [5],not accumulated
same,effect on hematoplasty and urination,rats; [5],does not affect hematoplasty and urination
same,histological changes in the visceral organs,"rats; kidney, liver, spleen, heart and the like, intraperitoneal 200 mg/kg 6 months, 1,000 mg/kg 1 month",no pathological changes in the visceral organs
same,arterial pressure reaction during the first 5 minutes,[1]; [6],uncertain hypertensive reaction
same,effect on the systemic arterial pressure,[1]; [6],no essential effect on the systemic arterial pressure
same,changes of the arterial pressure,"[1]; 250 mg/kg, cats and dogs",opposite-sign changes of the arterial pressure mainly of hypotensive character
same,average value of the maximum drop of pressure,"[1]; 250 mg/kg, first 10 minutes after administration, cats and dogs",8-10 % of the initial level
same,duration of the hypotensive effect,"[1]; 500 mg/kg, cats and dogs",20 to 30 min
same,hypotensive reaction intensity,"[1]; 500 mg/kg, cats and dogs",15-18 % of the initial level
same,influence on the adrenoreactive structures of the vessels,"[1]; dog, in vivo",does not influence the adrenoreactive structures of the vessels
same,depressor reactions on isoproterenol,[1]; isoproterenol 2.5 μg/kg,does not change the character
same,pressor reactions of arterial pressure on noradrenaline,[1]; noradrenaline 3 μg/kg,does not change the character
same,arterio-venous difference relative to oxygen,coronary blood flow,lowering the arterio-venous difference relative to oxygen; also recorded: decrease in the arterio-venous difference relative to oxygen
same,content of oxyhemoglobin in coronary venous blood,coronary blood flow,increased content of oxyhemoglobin in coronary venous blood
same,increase of coronary blood flow versus absorption of oxygen by myocardium,coronary blood flow,surpasses the absorption of oxygen by myocardium
same,increase of coronary blood flow,"coronary blood flow; 50 mg/kg intravenously, average",32±5%
same,duration of coronary blood flow effect,coronary blood flow; 500 mg/kg,30 to 40 min
same,increase of coronary blood flow,coronary blood flow; 500 mg/kg,108±12%
same,increase of the amount of the heart-absorbed oxygen,coronary blood flow; calculated from arterio-venous difference,29±2.3%
same,heart function,[2]; 250 mg/kg intravenously,capable of increase the heart function
same,Time of systolic ejaculation,[2]; [7],0.12 ± 0.01 s
same,Time of diastolic relaxation,[2]; [7],0.22 ± 0.01 s
same,Minute work,[2]; [7],1.12 ± 0.15 kgm
same,Systolic (beat) volume,[2]; [7],2.22 ± 0.15 mL
same,Maximum blood flow,[2]; [7],30 ± 8.2
same,Maximum linear speed,[2]; [7],41 ± 2.7 cm/s
same,Average arterial pressure,[2]; [7],137 ± 6.9 mm Hg
same,Pulse frequency,[2]; [7],190 ± 6 b/min
same,Minute volume,[2]; [7],464 ± 38 mL/min
same,Time of systolic ejaculation,[2]; [8],0.11 ± 0.09 s
same,Time of diastolic relaxation,[2]; [8],0.21 ± 0.01 s
same,Minute work,[2]; [8],1.23 ± 0.11 kgm
same,Systolic (beat) volume,[2]; [8],2.34 ± 0.18 mL
same,Maximum blood flow,[2]; [8],34 ± 2.6
same,Maximum linear speed,[2]; [8],49 ± 2.8 cm/s
same,Average arterial pressure,[2]; [8],126 ± 8.1 mm Hg
same,Pulse frequency,[2]; [8],197 ± 5 b/min
same,Minute volume,[2]; [8],488 ± 43 mL/min
same,Time of systolic ejaculation,[2]; [9],0.13 ± 0.01 s
same,Time of diastolic relaxation,[2]; [9],0.20 ± 0.01 s
same,Minute work,[2]; [9],0.97 ± 0.08 kgm
same,Systolic (beat) volume,[2]; [9],2.01 ± 0.15 mL
same,Maximum blood flow,[2]; [9],28 ± 1.4
same,Maximum linear speed,[2]; [9],38 ± 2.3 cm/s
same,Average arterial pressure,[2]; [9],139 ± 7.4 mm Hg
same,Pulse frequency,[2]; [9],191 ± 7 b/min
same,Minute volume,[2]; [9],415 ± 32 mL/min
same,Time of systolic ejaculation,[2]; [10],0.13 ± 0.008 s
same,Time of diastolic relaxation,[2]; [10],0.23 ± 0.009 s
same,Minute work,[2]; [10],0.83 ± 0.10 kgm
same,Systolic (beat) volume,[2]; [10],1.97 ± 0.12 mL
same,Maximum blood flow,[2]; [10],21.4 ± 2.2
same,Maximum linear speed,[2]; [10],33. ± 3.1 cm/sec
same,Average arterial pressure,[2]; [10],146 ± 8.8 mm Hg
same,Pulse frequency,[2]; [10],183 ± 7 b/min
same,Minute volume,[2]; [10],397 ± 33 mL/min
same,pressor responses caused by tetanic irritation of tibial nerve,[3]; 50 mg/kg,remain unchanged
same,tonic and reflectorial activity in sympathetic nerves,[3]; 50 mg/kg,does not noticeably change the character and intensity of tonic and reflectorial activity in sympathetic nerves
same,spontaneous activity and reflectorial responses,"[3]; 50 mg/kg, in a certain number of the experiments",slight amplification of spontaneous activity and facilitation of reflectorial responses
same,C-responses of the reflectorial discharges,[3]; 250-500 mg/kg,suppressed
same,inhibiting component of the reflectorial response,[3]; 250-500 mg/kg,amplification of the inhibiting component of the reflectorial response
same,tonic activity in sympathetic nerves,[3]; 250-500 mg/kg,weakly inhibited
same,ischemic changes of epicardial electrograms in the zone of ischemia,"[4]; 200 mg/kg, dogs",inhibited the development of ischemic changes of epicardial electrograms in the zone of ischemia
same,blood inflow into the ischemic zone (retrograde blood flow),[4]; dogs,considerably increase the blood inflow into the ischemic zone
same,activity compared with nonachlazine (sum of pharmacological effects),[4]; experimental model of acute myocardium ischemia,more active (as regards the sum of pharmacological effects) than the known preparation nonachlazine
same,solubility in water,solubility in water,well soluble in water
same,arterial pressure,cardio-vascular effects,no substantial change of arterial pressure
same,colateral blood flow in deep (endocardial) layers of myocardium,cardio-vascular effects,contributes to the development of the colateral blood flow in deep (endocardial) layers of myocardium
same,contractibility of myocardium (inotropic effect),cardio-vascular effects,positive inotropic effect; also recorded: increases contractibility of myocardium
same,frequency of heart contractions,cardio-vascular effects,without affecting the frequency of heart contractions
same,functional state of the ischemic centre,cardio-vascular effects,capable of improving functional state of the ischemic centre; also recorded: capable of improve the functional state of the ischemic centre
same,lactate in the blood outflowing from the ischemic zone,cardio-vascular effects,lowering the content of lactate in the blood outflowing from the ischemic zone
same,sympathetic tonus of heart and vessels,cardio-vascular effects,capable of inhibiting the sympathetic tonus of heart and vessels
same,vascular component of pain reactions,cardio-vascular effects,"capable of inhibiting the sympathetic tonus of heart and vessels, as well as vascular components of pain reactions; also recorded: suppresses the vascular component of pain reactions"
same,volumetric rate of total coronary blood flow,cardio-vascular effects,increases the volumetric rate of total coronary blood flow
